Data published in US10246469B2, “Biaryl kinase inhibitors” (BRISTOL-MYERS SQUIBB COMPANY, priority 2015, dated 2019).
Each block holds one compound with its values, some of them ahead of it.

Target: T1, GST-Xa-hAAK1 (Homo sapiens, UniProt Q2M2I8)
T1 construct: GST (N); Factor Xa cleavage site (Xa) (internal); made in house
Experiment: AAK1 Kinase Assay
Type: biochemical
Settings: bacterially expressed GST-Xa-hAAK1 3.5 nM; ATP 22 μM; fluoresceinated peptide 1.5 μM; 3 hours at room temperature; Caliper LabChip 3000
Summary of the method: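 Bacterially expressed GST-Xa-hAAK1 (3.5 nM) phosphorylated 1.5 μM 5-FAM peptide with 22 μM ATP in Tris pH 7.4, MgCl2, DTT, 1.6% DMSO, 3 h at room temperature. EDTA-stopped; product separated electrophoretically on Caliper LabChip. IC50 from eleven concentrations by non-linear regression.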

T1 sequence (Q2M2I8 whole entry): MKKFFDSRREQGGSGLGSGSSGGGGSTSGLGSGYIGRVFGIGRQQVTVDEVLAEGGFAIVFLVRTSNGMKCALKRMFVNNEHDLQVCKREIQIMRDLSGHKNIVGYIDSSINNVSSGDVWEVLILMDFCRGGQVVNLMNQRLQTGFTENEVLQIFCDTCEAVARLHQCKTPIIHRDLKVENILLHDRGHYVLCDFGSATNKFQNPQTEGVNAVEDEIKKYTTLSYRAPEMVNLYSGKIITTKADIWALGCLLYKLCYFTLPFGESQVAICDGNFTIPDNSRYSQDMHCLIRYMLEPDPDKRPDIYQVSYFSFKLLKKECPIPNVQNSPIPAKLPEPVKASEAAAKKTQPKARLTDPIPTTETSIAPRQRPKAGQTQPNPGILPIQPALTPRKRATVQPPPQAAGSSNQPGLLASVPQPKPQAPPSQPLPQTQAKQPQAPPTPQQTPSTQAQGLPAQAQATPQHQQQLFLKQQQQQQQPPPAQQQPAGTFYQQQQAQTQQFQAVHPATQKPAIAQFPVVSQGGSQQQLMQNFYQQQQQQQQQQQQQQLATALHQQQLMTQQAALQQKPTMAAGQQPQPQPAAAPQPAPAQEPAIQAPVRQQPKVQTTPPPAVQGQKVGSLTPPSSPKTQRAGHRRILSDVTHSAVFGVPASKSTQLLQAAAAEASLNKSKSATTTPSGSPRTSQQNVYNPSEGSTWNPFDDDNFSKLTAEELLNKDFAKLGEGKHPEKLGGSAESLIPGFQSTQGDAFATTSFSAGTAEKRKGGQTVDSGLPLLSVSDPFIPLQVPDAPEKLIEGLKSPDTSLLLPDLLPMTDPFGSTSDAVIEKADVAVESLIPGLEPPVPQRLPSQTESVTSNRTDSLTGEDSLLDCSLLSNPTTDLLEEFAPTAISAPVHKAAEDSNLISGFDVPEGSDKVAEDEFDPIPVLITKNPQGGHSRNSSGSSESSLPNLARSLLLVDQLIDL

SMILES: Cc1ncccc1C(=O)Nc1cc(-c2ccc(OC[C@@](C)(N)CC(C)C)c(C(F)(F)F)c2)ccn1 [Example 405, (S)—N-(4-(4-((2-amino-2,4-dimethylpentyl)oxy)-3-(trifluoromethyl)phenyl)pyridin-2-yl)-2-methylnicotinamide]
IC50: 2 nM

SMILES: CC(C)C[C@](C)(N)COc1ccc(-c2ccnc(NC(=O)c3cnn[nH]3)c2)cc1C(F)(F)F [Example 406, (S)—N-(4-(4-((2-amino-2,4-dimethylpentyl)oxy)-3-(trifluoromethyl)phenyl)pyridin-2-yl)-1H-1,2,3-triazole-5-carboxamide]
IC50: 0.3 nM

SMILES: CC(C)C[C@](C)(N)COc1ccc(-c2ccnc(NC(=O)C3=NNC(=O)CC3)c2)cc1C(F)(F)F [Example 407, (S)—N-(4-(4-((2-amino-2,4-dimethylpentyl)oxy)-3-(trifluoromethyl)phenyl)pyridin-2-yl)-6-oxo-1,4,5,6-tetrahydropyridazine-3-carboxamide]
IC50: 0.8 nM

SMILES: Cc1cc(C(=O)Nc2cc(-c3ccc(OC[C@@](C)(N)CC(C)C)c(C(F)(F)F)c3)ccn2)no1 [Example 408, (S)—N-(4-(4-((2-amino-2,4-dimethylpentyl)oxy)-3-(trifluoromethyl)phenyl)pyridin-2-yl)-5-methylisoxazole-3-carboxamide]
IC50: 0.5 nM

SMILES: CC(C)C[C@](C)(N)COc1ccc(-c2ccnc(NC(=O)c3cc(C(C)C)[nH]n3)c2)cc1C(F)(F)F [Example 409, (S)—N-(4-(4-((2-amino-2,4-dimethylpentyl)oxy)-3-(trifluoromethyl)phenyl)pyridin-2-yl)-5-isopropyl-1H-pyrazole-3-carboxamide]
IC50: 0.7 nM

SMILES: CC(C)C[C@](C)(N)COc1ccc(-c2ccnc(NCc3cccnc3)c2)cc1C(F)(F)F [Example 410, (S)-4-(4-((2-amino-2,4-dimethylpentyl)oxy)-3-(trifluoromethyl)phenyl)-N-(pyridin-3-ylmethyl)pyridin-2-amine]
IC50: 3.6 nM

SMILES: CC(C)C[C@](C)(N)COc1ccc(-c2ccnc(NCc3ccco3)c2)cc1C(F)(F)F [Example 411, (S)-4-(4-((2-amino-2,4-dimethylpentyl)oxy)-3-(trifluoromethyl)phenyl)-N-(furan-2-ylmethyl)pyridin-2-amine]
IC50: 1.1 nM

SMILES: CC(C)C[C@](C)(N)COc1ccc(-c2ccnc(Nc3ccc4c(c3)OCO4)c2)cc1C(F)(F)F [Example 412, (S)-4-(4-((2-amino-2,4-dimethylpentyl)oxy)-3-(trifluoromethyl)phenyl)-N-(benzo[d][1,3]dioxol-5-yl) pyridin-2-amine]
IC50: 6.4 nM

SMILES: CC(C)C[C@](C)(N)COc1ccc(-c2ccnc3c2C(=O)N(C)C3)cc1F [Example 413, (S)-4-(4-((2-amino-2,4-dimethylpentyl)oxy)-3-fluorophenyl)-6-methyl-6,7-dihydro-5H-pyrrolo [3,4-b]pyridin-5-one]
IC50: 765 nM

SMILES: CC(C)C[C@](C)(N)COc1ccc(-c2ccnc3c2C(=O)N(C)C3)cc1C#N [Example 414, (S)-2-((2-amino-2,4-dimethylpentyl)oxy)-5-(6-methyl-5-oxo-6,7-dihydro-5H-pyrrolo[3,4-b]pyridin-4-yl)benzonitrile]
IC50: 47 nM

SMILES: CC(C)C[C@](C)(N)COc1ccc(-c2ccnc3c2C(=O)NC3)cc1C#N [Example 415, (S)-2-((2-amino-2,4-dimethylpentyl)oxy)-5-(5-oxo-6,7-dihydro-5H-pyrrolo[3,4-b]pyridin-4-yl)benzonitrile]
IC50: 3.1 nM

SMILES: CC(C)C[C@](C)(N)COc1ccc(-c2ccnc3c2C(=O)NC3)cc1F [Example 416, (S)-4-(4-((2-amino-2,4-dimethylpentyl)oxy)-3-fluorophenyl)-6,7-dihydro-5H-pyrrolo[3,4-b]pyridin-5-one]
IC50: 94 nM

SMILES: CC(C)C[C@](C)(N)COc1ccc(-c2ccnc3c2C(=O)NC3)cc1Cl [Example 417, (S)-4-(4-((2-amino-2,4-dimethylpentyl)oxy)-3-chlorophenyl)-6,7-dihydro-5H-pyrrolo[3,4-b]pyridin-5-one]
IC50: 3.6 nM

SMILES: CCN1Cc2nccc(-c3ccc(OC[C@@](C)(N)CC(C)C)c(C(F)(F)F)c3)c2C1=O [Example 418, (S)-4-(4-((2-amino-2,4-dimethylpentyl)oxy)-3-(trifluoromethyl)phenyl)-6-ethyl-6,7-dihydro-5H-pyrrolo[3,4-b]pyridin-5-one]
IC50: 29 nM

SMILES: CCN1Cc2nccc(-c3ccc(OC[C@@](C)(N)CC(C)C)c(F)c3)c2C1=O [Example 419, (S)-4-(4-((2-amino-2,4-dimethylpentyl)oxy)-3-fluorophenyl)-6-ethyl-6,7-dihydro-5H-pyrrolo [3,4-b]pyridin-5-one]
IC50: 1140 nM

SMILES: CC(C)C[C@](C)(N)COc1ccc(-c2ccnc3cc[nH]c23)cc1F [Example 420, (S)-1-(2-fluoro-4-(1H-pyrrolo[3,2-b]pyridin-7-yl)phenoxy)-2,4-dimethylpentan-2-amine]
IC50: 1.1 nM

Continued, values first:

IC50: 0.5 nM
SMILES: CC(C)C[C@](C)(N)COc1ccc(-c2ccnc3cc[nH]c23)cc1C#N [Example 421, (S)-2-((2-amino-2,4-dimethylpentyl)oxy)-5-(1H-pyrrolo[3,2-b]pyridin-7-yl)benzonitrile]

IC50: 862 nM
SMILES: CC(C)C[C@](C)(N)COc1ccc(-c2ccnc3ccn(C)c23)cc1C#N [Example 423, (S)-2-((2-amino-2,4-dimethylpentyl)oxy)-5-(1-methyl-1H-pyrrolo[3,2-b]pyridin-7-yl)benzonitrile]

IC50: 1.2 nM
SMILES: CC(C)C[C@](C)(N)COc1ccc(-c2ccnc3cc[nH]c23)cc1C(F)(F)F [Example 424, (S)-1-(4-(1H-pyrrolo[3,2-b]pyridin-7-yl)-2-(trifluoromethyl)phenoxy)-2,4-dimethylpentan-2-amine]

IC50: 1.4 nM
SMILES: CC(C)C[C@](C)(N)COc1ccc(-c2ccnc3c2C(=O)NC3)cc1C(F)(F)F [Example 425, (S)-4-(4-((2-amino-2,4-dimethylpentyl)oxy)-3-(trifluoromethyl)phenyl)-6,7-dihydro-5H-pyrrolo [3,4-b]pyridin-5-one]

IC50: 7.2 nM
SMILES: CC(C)C[C@](C)(N)COc1ccc(-c2ccnc3c2C(=O)N(C)C3)cc1C(F)(F)F [Example 426, (S)-4-(4-((2-amino-2,4-dimethylpentyl)oxy)-3-(trifluoromethyl)phenyl)-6-methyl-6,7-dihydro-5H-pyrrolo [3,4-b]pyridin-5-one]

IC50: 1740 nM
SMILES: Cc1cc(-c2ccnc3ccn(C)c23)ccc1OC[C@@](C)(N)CC(C)C [Example 427, (S)-2,4-dimethyl-1-(2-methyl-4-(1-methyl-1H-pyrrolo[3,2-b]pyridin-7-yl)phenoxy)pentan-2-amine]

IC50: 13 nM
SMILES: Cc1cc(-c2ccnc3c2C(=O)NC3)ccc1OC[C@@](C)(N)CC(C)C [Example 428, (S)-4-(4-((2-amino-2,4-dimethylpentyl)oxy)-3-methylphenyl)-6,7-dihydro-5H-pyrrolo[3,4-b]pyridin-5-one]

IC50: 36 nM
SMILES: CC(C)C[C@](C)(N)COc1ccc(-c2ccnc3c2C(=O)N(C)C3)cc1Cl [Example 429, (S)-4-(4-((2-amino-2,4-dimethylpentyl)oxy)-3-chlorophenyl)-6-methyl-6,7-dihydro-5H-pyrrolo[3,4-b]pyridin-5-one]

IC50: 67 nM
SMILES: Cc1cc(-c2ccnc3c2C(=O)N(C)C3)ccc1OC[C@@](C)(N)CC(C)C [Example 430, (S)-4-(4-((2-amino-2,4-dimethylpentyl)oxy)-3-methylphenyl)-6-methyl-6,7-dihydro-5H-pyrrolo[3,4-b]pyridin-5-one]

IC50: 399 nM
SMILES: CC(C)C[C@](C)(N)COc1ccc(-c2cc(NC3CCOC3)ncn2)cc1C(F)(F)F (stereo partly drawn) [Example 448, 6-(4-(((S)-2-amino-2,4-dimethylpentyl)oxy)-3-(trifluoromethyl)phenyl)-N-(tetrahydrofuran-3-yl)pyrimidin-4-amine]

IC50: 352 nM
SMILES: CC(C)C[C@](C)(N)COc1ncc(-c2cc(NC3CCOC3)ncn2)cc1Cl (stereo partly drawn) [Example 449, 6-(6-(((S)-2-amino-2,4-dimethylpentyl)oxy)-5-chloropyridin-3-yl)-N-(tetrahydrofuran-3-yl)pyrimidin-4-amine]

IC50: 11 nM
SMILES: Cc1cn2nccc(-c3ccc(OC[C@@](C)(N)CC(C)C)c(C)n3)c2n1 [Example 452, (S)-2,4-dimethyl-1-((2-methyl-6-(2-methylimidazo[1,2-b]pyridazin-8-yl)pyridin-3-yl)oxy)pentan-2-amine]

IC50: 0.4 nM
SMILES: Cc1cn2nccc(-c3ccc(OC[C@@](C)(N)CC(C)C)c(C(F)F)n3)c2n1 [Example 453, (S)-1-((2-(difluoromethyl)-6-(2-methylimidazo[1,2-b]pyridazin-8-yl)pyridin-3-yl)oxy)-2,4-dimethylpentan-2-amine]

IC50: 391 nM
SMILES: CC(C)C[C@](C)(N)COc1ccc(-c2cc(N)nc3ccnn23)c(F)c1 [Example 455, (S)-7-(4-((2-amino-2,4-dimethylpentyl)oxy)-2-fluorophenyl)pyrazolo[1,5-a]pyrimidin-5-amine]

IC50: 1 nM
SMILES: CC(C)C[C@](C)(N)COc1ccc(-c2ccnc3ccnn23)cc1Cl [Example 456, (S)-1-(2-chloro-4-(pyrazolo [1,5-a]pyrimidin-7-yl)phenoxy)-2,4-dimethylpentan-2-amine]

IC50: 160 nM
SMILES: CC(C)C[C@](C)(N)COc1ccc(-c2cc(N)nc3ccnn23)cc1F [Example 457, (S)-7-(4-((2-amino-2,4-dimethylpentyl)oxy)-3-fluorophenyl)pyrazolo[1,5-a]pyrimidin-5-amine]

IC50: 1270 nM
SMILES: Cc1cc(-c2ccc(OC[C@@](C)(N)CC(C)C)c(Cl)c2)n2nc(C)cc2n1 [Example 459, (S)-1-(2-chloro-4-(2,5-dimethylpyrazolo[1,5-a]pyrimidin-7-yl)phenoxy)-2,4-dimethylpentan-2-amine]

IC50: 0.6 nM
SMILES: CC(C)C[C@](C)(N)COc1ccc(-c2ccnc3ccnn23)cc1C#N [Example 460, (S)-2-((2-amino-2,4-dimethylpentyl)oxy)-5-(pyrazolo[1,5-a]pyrimidin-7-yl)benzonitrile]
